Reference: PubChem BioAssay (NCI)
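Where inhibition never reached the appropriate level, the endpoint shown equals the highest concentration tested. Otherwise, values were interpolated linearly from a five-concentration, 48-hour dose response in 96-well plates. The concentration for full growth arrest is given as TGI.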

Columns and labels:
Assay in all cases: inhibition of tumour cell growth, NCI panel, 48 h
ACHN renal = tested on: ACHN renal
SK-MEL-28 melanoma = tested on: SK-MEL-28 melanoma
SF-268 CNS = tested on: SF-268 CNS
KM12 colon = tested on: KM12 colon
COLO 205 colon = tested on: COLO 205 colon
CCRF-CEM leukemia = tested on: CCRF-CEM leukemia
TK-10 renal = tested on: TK-10 renal
SK-MEL-5 melanoma = tested on: SK-MEL-5 melanoma
UACC-257 melanoma = tested on: UACC-257 melanoma
T-47D breast = tested on: T-47D breast
UO-31 renal = tested on: UO-31 renal
BT-549 breast = tested on: BT-549 breast
HCT-116 colon = tested on: HCT-116 colon
K-562 leukemia = tested on: K-562 leukemia
HL-60(TB) leukemia = tested on: HL-60(TB) leukemia
HOP-62 NSCLC = tested on: HOP-62 NSCLC
RPMI-8226 leukemia = tested on: RPMI-8226 leukemia

| SMILES | TGI (ACHN renal) [µM] | TGI (SK-MEL-28 melanoma) [µM] | TGI (SF-268 CNS) [µM] | TGI (KM12 colon) [µM] | TGI (COLO 205 colon) [µM] | TGI (CCRF-CEM leukemia) [µM] | TGI (TK-10 renal) [µM] | TGI (SK-MEL-5 melanoma) [µM] | TGI (UACC-257 melanoma) [µM] | TGI (T-47D breast) [µM] | TGI (UO-31 renal) [µM] | TGI (BT-549 breast) [µM] | TGI (HCT-116 colon) [µM] | TGI (K-562 leukemia) [µM] | TGI (HL-60(TB) leukemia) [µM] | TGI (HOP-62 NSCLC) [µM] | TGI (RPMI-8226 leukemia) [µM] |
| --- | --- | --- | --- | --- | --- | --- | --- | --- | --- | --- | --- | --- | --- | --- | --- | --- | --- |
| Cc1nc2c(Cl)cc(Cl)cc2c(Cl)c1CCCl | > 100 | > 100 | > 100 | > 100 | > 100 | > 100 | > 100 | > 100 | > 100 | 89.7 | > 100 | > 100 | > 100 | > 100 | > 100 | > 100 | > 100 |
| O=c1oc2c/c(=C\c3ccccc3)c(=O)c3cccc1c3-2 | > 100 | > 100 | 58.7 | 56.3 | > 100 |  | > 100 |  | > 100 | 55.5 | 85.5 | 51.6 | 71.2 |  | 71.1 | 44.1 | 88.1 |
| COC12OC3CC4(C)C(=CC3OC(OC(C)C1O)C2O)CCC1C4CCC2(C)C(c3ccc(=O)oc3)CCC12O (centres undefined) | 0.00449 | 0.0434 | 0.00157 | 0.00739 |  | 0.00208 | 0.00216 | 0.00171 | 0.0117 | 0.0782 | 0.00457 | 0.00413 | 0.00193 | 0.00718 | 0.00215 | 0.00311 | 0.00409 |
| NNC(=O)CCC(NS(=O)(=O)c1ccc(Cl)cc1)C(=O)NN (centres undefined) | > 100 | > 100 | > 100 | > 100 | > 100 | > 100 | > 100 | > 100 | > 100 | > 100 | > 100 | > 100 | > 100 | > 100 | > 100 | > 100 |  |
| Cn1c(N=[N+]=[N-])cc(=O)n(C)c1=O | > 100 |  | > 100 | > 100 | > 100 | > 100 | > 100 | > 100 | > 100 | > 100 | > 100 | > 100 | > 100 | > 100 |  | > 100 | > 100 |
| COc1cc(O)c2c(=O)c(OC)c(-c3ccc4c(c3)OCO4)oc2c1OC | > 50 | > 50 | > 50 | > 50 | > 50 | > 50 | > 50 | > 50 | > 50 | > 50 | > 50 | > 50 | > 50 | > 50 | > 50 | > 50 |  |
| COc1nc2ccc(CNc3ccc(C(=O)O)cc3)cc2nc1OC | > 10 | > 10 | > 10 | > 10 | > 10 | > 10 | > 10 | > 10 | > 10 | > 10 |  | > 10 | > 10 | > 10 | > 10 | > 10 | > 10 |
| COC(=O)c1c(O)ccc2c1c1c(n2Cc2ccccc2OC)C(=O)c2ccccc2C1 |  | > 100 | > 100 | > 100 | 30 | 81.2 | > 100 | > 100 | > 100 | > 100 | > 100 | > 100 | > 100 | > 100 | > 100 | > 100 | 72.2 |
| O=C1c2ccccc2-c2nnc(-c3ccc(Cl)cc3)cc21 | > 10 | > 10 | > 10 | > 10 | > 10 | > 10 |  | > 10 | > 10 | > 10 | > 10 | > 10 | > 10 | > 10 | > 10 | > 10 | > 10 |
| CC1C2CC(CC2N)C1(C)C (centres undefined) | > 100 | > 100 | > 100 | > 100 | > 100 | > 100 | > 100 | > 100 | > 100 | > 100 | > 100 | > 100 | > 100 | > 100 | > 100 | > 100 |  |
| COc1c(-c2cccs2)oc2c(CC(=O)O)cccc2c1=O |  |  |  |  | > 100 | > 100 | > 100 | > 100 | > 100 | > 100 | 48.9 | > 100 | > 100 | > 100 | > 100 | > 100 | 5.92 |
| CCOC(=O)c1cn(CC)c2cc3c(cc2c1=O)CCS3(=O)=O | > 100 | > 100 | > 100 | > 100 |  | > 100 | > 100 | > 100 |  | > 100 | > 100 | > 100 | > 100 | > 100 | > 100 | > 100 |  |
| COc1cc([C@@H]2c3cc4c(cc3[C@@H](N=Cc3ccc(C(=O)O[C@@H](C(=O)O[C@H]5C[C@@]6(O)[C@@H](OC(=O)c7ccccc7)[C@@H]7[C@]8(OC(C)=O)CO[C@@H]8C[C@H](O)[C@@]7(C)C(=O)[C@H](OC(C)=O)C(=C5C)C6(C)C)[C@@H](NC(=O)c5ccccc5)c5ccccc5)cc3)[C@H]3COC(=O)[C@H]23)OCO4)cc(OC)c1O | > 50 | > 50 | > 50 | > 50 |  |  | > 50 | > 50 | > 50 | > 50 |  | > 11.7 | > 50 | > 50 | 0.182 | > 50 |  |
| COc1ccc(N=N/C(=N/NC(=O)c2cc(Cl)ccc2C(=O)c2ccccc2)c2ccc(N(CCC#N)CCC#N)cc2C)cc1 | 88.7 | > 100 | > 100 | > 100 | 42.9 | 19.8 | 75.1 | 31.6 | 81 | 47.4 | 79.3 | > 100 | 33.5 | > 100 |  | 81.2 | 44.4 |
